Measured values taken from US20110312974A1, “HETEROARYL ANTAGONISTS OF PROSTAGLANDIN D2 RECEPTORS” (AMIRA PHARMACEUTICALS, INC., priority 2008, published 2011).

molecular target: T1, human DP2 receptor (Homo sapiens, UniProt Q9Y5Y4); test: DP2/CRTH2 radioligand binding assay using [3H]PGD2; conditions: hDP2 (CRTH2) binding assay; membranes of HEK293 cells expressing recombinant human DP2, 1 nM [3H]PGD2
T1 construct: expressed in transfected cells; membrane preparation
T1 sequence (Q9Y5Y4 1-395): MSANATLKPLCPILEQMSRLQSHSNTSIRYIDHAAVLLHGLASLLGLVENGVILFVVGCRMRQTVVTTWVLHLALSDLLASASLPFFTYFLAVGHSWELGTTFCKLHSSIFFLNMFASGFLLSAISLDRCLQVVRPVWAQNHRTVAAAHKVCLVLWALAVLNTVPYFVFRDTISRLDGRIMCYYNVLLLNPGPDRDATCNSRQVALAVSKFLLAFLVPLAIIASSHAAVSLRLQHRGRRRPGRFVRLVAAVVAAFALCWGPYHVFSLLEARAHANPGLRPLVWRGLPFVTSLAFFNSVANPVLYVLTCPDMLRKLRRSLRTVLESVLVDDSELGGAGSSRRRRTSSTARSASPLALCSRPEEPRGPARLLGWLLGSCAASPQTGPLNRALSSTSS
Method: The ability of a compound to bind to the human DP2 receptor is assessed via a radioligand binding assay using [^3H]PGD2. HEK293 cells stably expressing recombinant human DP2 are resuspended in 10 mM Hepes, 7.4 containing 1 mM DTT, lysed and centrifuged at 75,000×g to pellet the membranes. The membranes are resuspended in 10 mM Hepes, 7.4 containing 1 mM DTT and 10% glycerol to approximately 5 mg protein/ml. Membranes (2-10 μg protein/well) are incubated in 96-well plates with 1 nM [^3H]PGD2 and test compound in Assay Buffer (50 mM Hepes, 10 mM MnCl2, 1 mM EDTA, plus or minus 0.2% human serum albumin, pH 7.4) for 60 minutes at room temperature. The reactions are terminated by rapid filtration through Whatman GF/C glass fibre filter plates. The filter plates were pre-soaked in 0.33% polythylenimine for 30 minutes at room temperature then washed in Wash Buffer (50 mM Hepes, 0.5 M NaCl pH 7.4) prior to harvesting. After harvesting, the filter plates are washed 3 times with 1 ml cold Wash Buffer then dried. Scintillant is then added to the plates and the radioactivity retained on the filters is determined on a Packard TopCount (Perkin Elmer). Specific binding is determined as total radioactive binding minus non-specific binding in the presence of 10 μM PGD2. IC50s were determined using GraphPad prism analysis of drug titration curves.

| Structure (SMILES) | IC50 [nM] |
| --- | --- |
| CC(=O)NCc1ccc(-c2cncc(CC(=O)O)c2)c(CN(Cc2ccccc2)C(=O)C2CC2)c1 [Compound 1-9, (5-{4-(Acetylamino-methyl)-2-[(N-benzyl-N-cyclopropanecarbonyl-amino)-methyl]-phenyl}-pyridin-3-yl)-acetic acid] | > 1000 |
| CCN(Cc1cc(C(F)(F)F)ccc1-c1cccc(CC(=O)O)n1)C(=O)C1CC1 [Compound 1-40, (6-{2-[(N-Cyclopropanecarbonyl-N-ethyl-amino)-methyl]-4-trifluoromethyl-phenyl}-pyridin-2-yl)-acetic acid] | > 1000 |
| O=C(O)Cc1cncc(-c2ccc(C(F)(F)F)cc2CN(CCc2cccnc2)C(=O)C2CC2)c1 [Compound 1-65, [5-(2-{[N-Cyclopropanecarbonyl-N-(2-pyridin-3-yl-ethyl)-amino]-methyl}-4-trifluoromethyl-phenyl)-pyridin-3-yl]-acetic acid] | 300 to 1000 |
| Cc1cnc(CN(Cc2cc(C(F)(F)F)ccc2-c2cncc(CC(=O)O)c2)C(=O)C2CC2)cn1 [Compound 1-58, [5-(2-{[N-Cyclopropanecarbonyl-N-(5-methyl-pyrazin-2-ylmethyl)-amino]-methyl}-4-trifluoromethyl-phenyl)-pyridin-3-yl]-acetic acid] | < 300 |
| CCN(Cc1cc(C(F)(F)F)ccc1-c1cc(CC(=O)O)ccn1)C(=O)C1CC1 [Compound 1-35, (2-{2-[(N-Cyclopropanecarbonyl-N-ethyl-amino)-methyl]-4-trifluoromethyl-phenyl}-pyridin-4-yl)-acetic acid] | > 1000 |
| O=C(O)Cc1cncc(-c2ccc(C(F)(F)F)cc2CN(Cc2ccccn2)C(=O)C2CC2)c1 [Compound 1-52, (5-{2-[(N-Cyclopropanecarbonyl-N-pyridin-2-ylmethyl-amino)-methyl]-4-trifluoromethyl-phenyl}-pyridin-3-yl)-acetic acid] | < 300 |
| CCN(Cc1cc(F)ccc1-c1cncc(C(C)C(=O)O)c1)C(=O)C1CC1 (centres unmarked) [Compound 1-13, 2-(5-[2-[(N-Cyclopropanecarbonyl-N-ethyl-amino)-methyl]-4-fluoro-phenyl]-pyridin-3-yl)-propionic acid] | > 1000 |
| CCN(Cc1cc(F)ccc1-c1cncc(C(C)C(=O)O)c1)C(=O)NCc1ccccc1 (centres unmarked) [Compound 1-12, 2-{5-[2-(3-Benzyl-1-ethyl-ureidomethyl)-4fluoro-phenyl]-pyridin-3-yl}-propionic acid] | 300 to 1000 |
| CCN(Cc1cc(C(F)(F)F)ccc1-c1cccc(CC(=O)O)n1)C(=O)OC(C)(C)C [Compound 1-38, (6-{2-[(N-tert-Butoxycarbonyl-N-ethyl-amino)-methyl]-4-trifluoromethyl-phenyl}-pyridin-2-yl)-acetic acid] | > 1000 |
| O=C(O)Cc1cncc(-c2ccc(C(F)(F)F)cc2CN(Cc2ccc(C(F)(F)F)nc2)C(=O)C2CC2)c1 [Compound 1-59, [5-(2-{[N-Cyclopropanecarbonyl-N-(6-trifluoromethyl-pyridin-3-ylmethyl)-amino]-methyl}-4-trifluoromethyl-phenyl)-pyridin-3-yl]-acetic acid] | < 300 |
| O=C(O)Cc1cncc(-c2ccc(C(F)(F)F)cc2CN(CCc2ccncc2)C(=O)C2CC2)c1 [Compound 1-66, [5-(2-{[N-Cyclopropanecarbonyl-N-(2-pyridin-4-yl-ethyl)-amino]-methyl}-4-trifluoromethyl-phenyl)-pyridin-3-yl]-acetic acid] | > 1000 |
| CCN(Cc1cc(C(F)(F)F)ccc1-c1cc(C(F)(F)F)cc(CC(=O)O)n1)C(=O)C1CCC1 [Compound 1-41, (6-{2-[(N-Cyclobutanecarbonyl-N-ethyl-amino)-methyl]-4-trifluoromethyl-phenyl}-4-trifluoromethyl-pyridin-2-yl)-acetic acid] | < 300 |
| O=C(O)Cc1cncc(-c2ccc(C(F)(F)F)cc2CN(CCc2ccccc2)C(=O)C2CC2)c1 [Compound 1-26, (5-{2-[(N-Cyclopropanecarbonyl-N-phenethyl-amino)-methyl]-4-trifluoromethyl-phenyl}-pyridin-3-yl)-acetic acid] | < 300 |
| O=C(O)Cc1cncc(-c2ccc(C(F)(F)F)cc2CN(CCc2ccccn2)C(=O)C2CC2)c1 [Compound 1-64, [5-(2-{[N-Cyclopropanecarbonyl-N-(2-pyridin-2-yl-ethyl)-amino]-methyl}-4-trifluoromethyl-phenyl)-pyridin-3-yl]-acetic acid] | > 1000 |
| CC(=O)N(Cc1cnc(C)cn1)Cc1cc(C(F)(F)F)ccc1-c1cncc(CC(=O)O)c1 [Compound 1-61, [5-(2-{[N-Acetyl-N-(5-methyl-pyrazin-2-ylmethyl)-amino]-methyl}-4-trifluoromethyl-phenyl)-pyridin-3-yl]-acetic acid] | < 300 |
| CCN(Cc1cc(C(F)(F)F)ccc1-c1cccc(CC(=O)O)n1)C(=O)NCc1ccccc1 [Compound 1-39, {6-[2-(3-Benzyl-1-ethyl-ureidomethyl)-4-trifluoromethyl-phenyl]-pyridin-2-yl}-acetic acid] | > 1000 |
| CCN(Cc1cc(-n2cccn2)ccc1-c1cc(CC(=O)O)cnc1OC)C(=O)C1CC1 [Compound 1-46, (5-{2-[(N-Cyclopropanecarbonyl-N-ethyl-amino)-methyl]-4-pyrazol-1-yl-phenyl}-6-methoxy-pyridin-3-yl)-acetic acid] | < 300 |
| CCN(Cc1cc(C(F)(F)F)ccc1-c1cc(C(F)(F)F)cc(CC(=O)O)n1)C(=O)NCc1ccccc1 [Compound 1-42, {6-[2-(3-Benzyl-1-ethyl-ureidomethyl)-4-trifluoromethyl-phenyl]-4-trifluoromethyl-pyridin-2-yl}-acetic acid] | < 300 |

More lines, now with the values ahead:

| IC50 [nM] | Structure (SMILES) |
| --- | --- |
| < 300 | CCN(Cc1cc(C(F)(F)F)ccc1-c1cnn(CC(=O)O)c1)C(=O)C1CC1 [Compound 3-1, (4-{2-[(N-Cyclopropanecarbonyl-N-ethyl-amino)-methyl]-4-trifluoromethyl-phenyl}-pyrazol-1-yl)-acetic acid] |
| < 300 | CCN(Cc1cc(C(F)(F)F)ccc1-c1cc(CC(=O)O)cnc1OCC1CC1)C(=O)C1CC1 [Compound 1-69, (5-{2-[(N-Cyclopropanecarbonyl-N-ethyl-amino)-methyl]-4-trifluoromethyl-phenyl}-6-cyclopropylmethoxy-pyridin-3-yl)-acetic acid] |
| < 300 | CCN(Cc1cc(C(F)(F)F)ccc1-c1cncc(CC(=O)O)c1)S(=O)(=O)c1cccc2c(N(C)C)cccc12 [Compound 1-77, [5-(2-{[N-(5-Dimethylamino-naphthalene-1-sulfonyl)-N-ethyl-amino]-methyl}-4-trifluoromethyl-phenyl)-pyridin-3-yl]-acetic acid] |
| > 1000 | CCN(Cc1cc(C(F)(F)F)ccc1-c1cc(CC(=O)O)cnc1-c1ccccc1)C(=O)C1CC1 [Compound 1-76, (5-{2-[(N-Cyclopropanecarbonyl-N-ethyl-amino)-methyl]-4-trifluoromethyl-phenyl}-6-phenyl-pyridin-3-yl)-acetic acid] |
| < 300 | CCN(Cc1cc(C(F)(F)F)ccc1-c1cc(CC(=O)O)cnc1OCc1csc(C)n1)C(=O)C1CC1 [Compound 1-70, [5-{2-[(N-Cyclopropanecarbonyl-N-ethyl-amino)-methyl]-4-trifluoromethyl-phenyl}-6-(2-methyl-thiazol-4-ylmethoxy)-pyridin-3-yl]-acetic acid] |
| < 300 | Cc1nn(CC(=O)O)c(C)c1-c1ccc(C(F)(F)F)cc1CN(Cc1ccccc1)C(=O)C1CC1 [Compound 3-3, (4-{2-[(N-Benzyl-N-cyclopropanecarbonyl-amino)-methyl]-4-trifluoromethyl-phenyl}-3,5-dimethyl-pyrazol-1-yl)-acetic acid] |
| > 1000 | CCNCc1cc(C(F)(F)F)ccc1-c1cncc(CC(=O)O)c1 [Compound 1-78, [5-(2-Ethylaminomethyl-4-trifluoromethyl-phenyl)-pyridin-3-yl]-acetic acid] |
| < 300 | C[C@H]1[C@@H](c2ccccc2)OC(=O)N1Cc1cc(C(F)(F)F)ccc1-c1cncc(CC(=O)O)c1 [Compound 2-1, {5-[2-((4S,5R)-4-Methyl-2-oxo-5-phenyl-oxazolidin-3-ylmethyl)-4-trifluoromethyl-phenyl]-pyridin-3-yl}-acetic acid] |
